From patent US20100197710A1, “Methods Of Activating IRS-1 And AKT” (MELIOR PHARMACEUTICALS I, INC., priority 2007, published 2010)

Tests used:
[1] = tested on: mouse model of hyperglycemia; experiment: Oral glucose tolerance test; type: in vivo, mice
Excerpt: Type II diabetes is characterized by high blood glucose level in the presence of normal amounts of insulin. Animal models of type II diabetes involve administering a high level of glucose and measuring blood glucose level and the ability of the experimental animal to maintain glucose homeostasis over time. Several pharmacological structural classes can effectively regulate this hyperglycemic response including sulfonylureas, thiazoladinediones (PPARγ agonists; glitazones) or metformin (glucophage). These drug classes are also clinically approved for use in humans. In the current study, a mouse model of hyperglycemia has been established by administering high level of glucose to mice.
Glucose was formulated in water at a concentration of 150 mg/ml and dosed at a volume of 10 ml/kg to produce a dose of 1.5 g/kg. Glucose was measured using the Ascensia II Elite XL glucose monitor (Bayer). Glucose was measured by taking a small (2 mm) section off the tip of the tail, bleed onto glucose test strip. Data for each time point was analyzed by ANOVA and post-hoc Tukey's test. A p value of less then 0.05 was used to indicate statistical significance. Two studies were conducted with the following Compound 102.
In study 1, mice were dosed with Compound 102 and glucose as follows:
In study 2, mice were dosed with Compound 102 and glucose as follows.
Study 3 tested Compound 102 and was conducted as follows: […]

[2] = tested on: Male CD1/ICR mice fed Western Diet; experiment: Western Diet study (weight, food intake, fat pads); type: in vivo
Protocol: Male CD1/ICR mice were obtained from Harlan. The study was started when mice were 8 weeks of age. Prior to initiation of the study mice fasted for 24 hours. Mice were fed “Western Diet” that was designed to approximate the “typical” human diet of North America and Europe (Research Diets; New Brunswick, N.J.; Western Diet composition). The Western Diet contained greater than 5 times more fat than normal chow. [table] Mice were weighed daily beginning from the start of the 24 hour fasting period. Food intake was monitored continuously. Mice were bled by retroorbital eyebleed on days 7, 14, 21 and 28 after the initiation of the study. On day of REB, mice were dosed 1× with full dose 1 hour prior to bleed. Fat pads were dissected at the end of the study (day 31) weighed and frozen. The following fat pads were dissected: brown, inguinal, axial, mesenteric, renal, and epidydimal. Data were averaged and analyzed by ANOVA followed by a post-hoc Tukey's test with a p value of less then 0.05 indicating a statistical difference.

mice on western diet = experiment: Leptin level in Western Diet treated animals (ELISA); type: in vivo; conditions: mice fed western diet, bled days 7, 14, 21, 28, dosed 1 hour prior to bleed
Protocol: Blood from mice that were on western diet (Compound 102) were analyzed for leptin level. Mice were bled by retroorbital eyebleed on days 7, 14, 21 and 28 after the initiation of the study. On day of REB, mice were dosed once with full dose 1 hour prior to bleed. Leptin level was determined by ELISA (R&D Systems) as per directions. Data are expressed as the average±SEM. Data were averaged and analyzed by ANOVA followed by a post-hoc Tukey's test with a p value of less then 0.05 indicating a statistical difference.

[3] = tested on: Db/Db Leptin Receptor deficient diabetes/metabolic syndrome animal model; experiment: In vivo Db/Db mouse study, glucose study; conditions: Db/Db mice
Protocol: (§1) Db/Db and Db/lean mice were obtained from Harlan at 6 weeks of age. Mice were housed 3 per cage and fed ad libitum normal rodent chow. Mice were kept on a 12 hour light:dark cycle.
(§2) The study was initiated when mice reached an age of 8 weeks and their baseline blood glucose level was greater than 200 mg/dl. Compound 102 was formulated in PBS:2N HCl (99:1) at concentrations of 0.5, 1.5 and 5 mg/ml. Mice were dosed at volumes of 10 ml/kg to produce doses of 5, 15 and 50 mg/kg/dose. Mice were dosed twice per day at an 8 hour interval (8 am and 4 pm) during the light cycle.
For the acute blood glucose measurements, blood glucose level was measured after the animals received their first dose of Compound 102. Blood glucose level was measured two hours after this initial injection.
In this study, mice were dosed with Compound 102 IP, twice/day over the course of four weeks.

Db/Db mice = experiment: In vivo Db/Db mouse study, obesity study; conditions: 28 days
Protocol: as §1, §2
Mice were administered vehicle or drug (i.e., Compound 102) (5, 15, and 50 mg/kg) twice per day (bid) for the 28 days. Mouse weight and food intake were monitored daily. Food intake is reported as food intake (grams) per mouse per 24 hour period.

Zucker rats = experiment: In vivo Zucker rat glucose study; conditions: 30 mg/kg ip, glucose 1.5 g/kg oral gavage, 30 and 270 minutes after glucose
Protocol: Zucker rats and corresponding lean rats were supplied by Harlan. Rats were fed a normal diet, ad libitum, and kept on a 12 hour light/dark cycle. Rats were housed 3 per cage. At 12 weeks of age, Zucker rats were administered Compound 102 at a concentration of 30 mg/kg (ip). Blood glucose level was measured 30 minutes after administration. Forty-five minutes after drug administration, animals were administered a glucose solution (1.5 g/kg) by oral gavage. Blood glucose level was measured every 30 minutes after gavage for 4.5 hours. There were 3 groups with 3 animals per group: 1) 3 Zucker leans (no drug; no glucose treatment); 2) Zucker vehicle treated group (glucose challenged); and 3) Zucker Compound 102 treatment (30 mg/kg); glucose challenged.

IRS-1 = IRS-1 phosphorylation in vivo (immunoprecipitation); conditions: mice, fat pads and livers removed ninety minutes after drug administration, FIGS. 2A, 2B
Protocol: (§3) The following studies were conducted to determine whether Compound 102 activated lyn kinase in vivo. This determination was conducted by measuring activation (phosphorylation) of downstream substrates of Lyn in mice treated with Compound 102. Referring to FIGS. 2A, 2B, and 3, mice were administered Compound 102 at the indicated dose. Ninety minutes after drug administration, fat pads and livers were removed. IRS-1 phosphorylation was measured by immunoprecipitation using an anti-phosphotyrosine antibody and probing with either IRS-1 or AKT antibody.

AKT = AKT phosphorylation in vivo (immunoprecipitation); conditions: mice, fat pads and livers removed ninety minutes after drug administration, FIG. 3
Protocol: as §3

[4] = study 1, mice, single administration, 30 mg/kg
[5] = IP twice/day over four weeks, 5, 15, 50 mg/kg

For `Cc1cccc(Oc2cnc(=O)[nH]c2)c1` [Compound 102], the “normal blood glucose level (pre-glucose loading)” value [1, 4] was “significantly decreased”, the “time after drug administration at which significance was lost” value [1, 4] was 90 min and the “blood glucose level produced by oral glucose administration” value ([1]; study 1, mice, single administration, 30 mg/kg, oral glucose 1.5 g/kg) was “significantly attenuated”. The “effect on blood glucose level” value ([1]; study 2, mice, increased (repeated) dosing) was “more dramatic effect”, the “brown, axial, inguinal, renal and epididymal fat pad increases” value ([2]; fat pads dissected day 31) was “significantly reduced” and the “weight gain (absolute weight and weight change from day 0)” value ([2]; highest dose tested 30 mg/kg/day) was “significantly reduced”. The blood leptin level (mice on western diet) was “reduced leptin level to those fed a normal diet”, the “acute blood glucose response in dose groups” value ([3]; 15 mg/kg and 50 mg/kg dose groups, upon study initiation and on weekly blood glucose testing) was “acute dose response” and the animal weight gain [3, 5] was “dose dependent effect”. For the same compound, the blood glucose level [3, 5] was “dose dependent effect”, the “blood glucose level following acute administration” value ([3]; measured two hours after first dose) was “reduce blood glucose level” and the weight-gain response (Db/Db mice; chronic administration, 5, 15, 50 mg/kg bid) was “significantly inhibited”. For the same compound, the defecation (Db/Db mice; chronic administration, bid) was “defecated normally”, the “blood glucose level after oral glucose administration” value (Zucker rats) was “reduced blood glucose level” and the “phosphorylation of IRS-1” value (IRS-1) was “increases”. The “phosphorylation of AKT” value (AKT) was “increases”.
`O=c1ncc(Oc2cccc(Cl)c2)c[nH]1` [Compound 105] was tested, and the “baseline blood glucose level” value ([1]; mice, single dose of 2 or 10 mg/kg) was “significantly depressed” and the “blood glucose level at all time points after administration” value ([1]; mice, single dose of 2 or 10 mg/kg, P<0.05) was “significantly (P<0.05) reduced”.
For `CN(C)C(=N)N=C(N)N` [metformin, reference compound], the blood glucose load ([1]; validation of the mouse model of hyperglycemia) was “effectively reduce”.
